pIC50, pKi: −log10 of the molar value. Where “and” joins values, the source holds several entries; their conditions need not be identical. Identical values can stand only once. Entries after “also recorded” stand apart in the source; their conditions may differ. Like-named read-outs stand apart in the source and are kept apart here.
What was measured:
SETD2 = settings: cited from earlier work
recombinant SETD2 = target: T1, recombinant SETD2 (Homo sapiens, UniProt Q9BYW2); assay: SETD2 Chemiluminescence assay (H3K36 tri-methylation); format: biochemical; settings: for SETD2 signal, blank corrected, normalized to positive ctrl: internal control
T1 construct: purchased BPS Bioscience 52060
T1 sequence (Q9BYW2 1418-1714 limits assumed): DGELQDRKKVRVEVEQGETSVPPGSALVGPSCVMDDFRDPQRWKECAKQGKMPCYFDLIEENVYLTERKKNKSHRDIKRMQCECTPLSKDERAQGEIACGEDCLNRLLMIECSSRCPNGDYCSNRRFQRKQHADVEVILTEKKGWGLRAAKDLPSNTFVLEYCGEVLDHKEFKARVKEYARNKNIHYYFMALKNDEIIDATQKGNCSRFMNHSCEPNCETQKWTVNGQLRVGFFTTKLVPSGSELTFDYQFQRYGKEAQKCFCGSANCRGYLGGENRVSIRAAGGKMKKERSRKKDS

human 5-HT1A receptor = target: T2, human 5-HT1A receptor (Homo sapiens, UniProt P08908); assay: GPCR radioligand binding assay, [3H]-8-OH-DPAT displacement, HEK293 membranes
T2 construct: expressed in transfected cells
T2 sequence (P08908 1-422): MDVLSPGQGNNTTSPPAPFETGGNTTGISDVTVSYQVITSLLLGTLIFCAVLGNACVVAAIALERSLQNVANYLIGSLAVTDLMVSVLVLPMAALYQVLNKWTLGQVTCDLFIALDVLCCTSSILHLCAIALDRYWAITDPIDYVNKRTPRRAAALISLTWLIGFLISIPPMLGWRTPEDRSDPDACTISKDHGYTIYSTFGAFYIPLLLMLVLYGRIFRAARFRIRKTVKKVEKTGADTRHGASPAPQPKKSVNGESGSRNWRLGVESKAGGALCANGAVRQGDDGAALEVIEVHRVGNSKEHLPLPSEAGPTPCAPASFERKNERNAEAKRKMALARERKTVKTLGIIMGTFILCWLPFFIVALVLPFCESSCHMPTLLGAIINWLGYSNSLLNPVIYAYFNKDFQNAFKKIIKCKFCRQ

bovine factor Xa = target: T3, bovine factor Xa (Bos taurus, UniProt P00743); assay: Protease inhibitory assay, chromogenic substrate S-2222; format: biochemical; settings: 1 = hit, 0 = no hit; screening at 200 µM
T3 construct: bovine factor Xa, Chromogenix, 2 nkat/mL; purchased Chromogenix

[1] = target: T4, SARS-CoV-2 NSP3 macrodomain (Severe acute respiratory syndrome coronavirus 2, UniProt P0DTD1); assay: NSP3 macrodomain HTRF assay, displacement of ADP-ribose-conjugated biotin peptide; format: binding
[2] = target: T4, SARS-CoV-2 NSP3 macrodomain; assay: X-ray fragment screening (XChem, crystal soaking); format: binding
human 5-HT6 receptor = target: T5, human 5-HT6 receptor (Homo sapiens, UniProt P50406); assay: GPCR radioligand binding assay, [3H]-LSD displacement, HEK293 membranes
T5 construct: expressed in transfected cells

human 5-HT7b receptor = target: T6, human 5-HT7b receptor (Homo sapiens, UniProt P34969); assay: GPCR radioligand binding assay, [3H]-5-CT displacement, HEK293 membranes
T6 construct: expressed in transfected cells

SARS-CoV-2 = assay: microbe, parasite or virus in culture; format: cell-based; settings: for antiviral activity in the cellular assay (in words): infected Vero E6 cells
human thrombin = target: T7, human thrombin (Homo sapiens, UniProt P00734); assay: Protease inhibitory assay, chromogenic substrate S-2238; format: biochemical
T7 construct: human thrombin; purchased Sigma-Aldrich

[3] = 10 µM, read-out: 5-HT1A % Inhibition by plate position
[4] = 1 = hit, 0 = no hit, tested at 10 µM, hit = 50% or stronger inhibition
[5] = 5-HT1A, average of exp_1 and exp_2, read-out: %inh 5-HT1A average
[6] = 5-HT1A, average, values below 0 and above 100% were set as 0 and 100, read-out: %inh 5-HT1A corrected*
[7] = 5-HT1A, replicate exp_1, read-out: %inh 5-HT1A exp_1
[8] = 5-HT1A, replicate exp_2, read-out: %inh 5-HT1A exp_2
[9] = IC50, SARS-CoV-2 macrodomain inhibition
[10] = 10 µM, read-out: 5-HT6 % Inhibition by plate position
[11] = 5-HT6, average of exp_1 and exp_2, read-out: %inh 5-HT6 average
[12] = 5-HT6, average, values below 0 and above 100% were set as 0 and 100, read-out: %inh 5-HT6 corrected*
[13] = 5-HT6, replicate exp_1, read-out: %inh 5-HT6 exp_1
[14] = 5-HT6, replicate exp_2, read-out: %inh 5-HT6 exp_2
[15] = 10 µM, read-out: 5-HT7 % Inhibition by plate position
[16] = 5-HT7, average of exp_1 and exp_2, read-out: %inh 5-HT7 average
[17] = 5-HT7, average, values below 0 and above 100% were set as 0 and 100, read-out: %inh 5-HT7 corrected*
[18] = 5-HT7, replicate exp_1, read-out: %inh 5-HT7 exp_1
[19] = 5-HT7, replicate exp_2, read-out: %inh 5-HT7 exp_2

T5 sequence (P50406 whole entry): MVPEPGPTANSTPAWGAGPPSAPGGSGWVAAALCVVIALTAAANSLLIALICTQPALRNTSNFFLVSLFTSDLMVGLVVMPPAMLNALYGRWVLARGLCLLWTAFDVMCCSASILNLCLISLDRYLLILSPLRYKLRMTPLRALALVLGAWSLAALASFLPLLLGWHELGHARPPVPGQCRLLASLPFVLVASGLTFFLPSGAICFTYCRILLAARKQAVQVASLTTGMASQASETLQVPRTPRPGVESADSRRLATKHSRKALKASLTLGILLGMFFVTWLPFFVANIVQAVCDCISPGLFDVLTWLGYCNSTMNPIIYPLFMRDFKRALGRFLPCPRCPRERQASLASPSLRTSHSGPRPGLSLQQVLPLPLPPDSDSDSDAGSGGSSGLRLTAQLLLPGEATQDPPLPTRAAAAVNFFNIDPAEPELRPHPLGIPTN
T6 sequence (P34969 1-432): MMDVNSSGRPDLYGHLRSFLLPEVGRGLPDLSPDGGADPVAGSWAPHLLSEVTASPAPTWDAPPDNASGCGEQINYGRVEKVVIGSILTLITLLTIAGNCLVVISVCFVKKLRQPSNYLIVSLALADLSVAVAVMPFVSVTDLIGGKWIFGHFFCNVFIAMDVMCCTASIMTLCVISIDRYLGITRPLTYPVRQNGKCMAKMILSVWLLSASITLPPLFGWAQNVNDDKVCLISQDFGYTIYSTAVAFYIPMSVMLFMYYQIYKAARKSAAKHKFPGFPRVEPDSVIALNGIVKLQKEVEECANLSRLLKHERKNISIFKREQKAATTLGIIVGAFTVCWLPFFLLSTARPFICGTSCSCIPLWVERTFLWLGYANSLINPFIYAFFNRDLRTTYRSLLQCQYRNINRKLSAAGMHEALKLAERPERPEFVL
T3 sequence (P00743 234-492 limits assumed): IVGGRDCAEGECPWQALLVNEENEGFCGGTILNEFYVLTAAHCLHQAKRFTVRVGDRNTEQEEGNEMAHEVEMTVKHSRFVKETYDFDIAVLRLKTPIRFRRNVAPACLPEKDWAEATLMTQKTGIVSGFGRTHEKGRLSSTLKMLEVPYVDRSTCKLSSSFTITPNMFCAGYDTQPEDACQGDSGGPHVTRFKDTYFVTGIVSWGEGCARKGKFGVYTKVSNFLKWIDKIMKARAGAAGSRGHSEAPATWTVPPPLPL
T3 sequence (P00743 41-180 partner limits assumed): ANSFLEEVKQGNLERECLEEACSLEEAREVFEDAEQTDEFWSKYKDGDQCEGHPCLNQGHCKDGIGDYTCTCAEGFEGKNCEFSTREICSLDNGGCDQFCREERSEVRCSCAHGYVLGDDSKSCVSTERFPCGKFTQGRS

SMILES: Nc1ncnc2c1ncn2[C@@H]1O[C@H](C[C@@H](N)CC[C@H](N)C(=O)O)[C@@H](O)[C@H]1O [Sinefungin, reference compound]
- activity as inhibitor of SETD2 (in words) (SETD2): moderately active
- inhibition of SETD2 activity (control, in words) (recombinant SETD2; 200 µM Sinefungin): complete inhibition
- SETD2 signal, blank corrected, normalized to positive ctrl (recombinant SETD2; 200 µM): 0.074
- SETD2 signal, blank corrected, normalized to positive ctrl (recombinant SETD2; 800 µM): 0.0136

SMILES: Nc1nnc2ccccn12 [SX005]
- inhibition at 10 µM (human 5-HT1A receptor; [3]): 0%
- experimental hit status, 5-HT1 (human 5-HT1A receptor; [4]): 0
- inhibition at 10 µM (human 5-HT1A receptor; [5]): -14%
- inhibition at 10 µM (human 5-HT1A receptor; [6]): 0%
- inhibition at 10 µM (human 5-HT1A receptor; [7]): 4%
- inhibition at 10 µM (human 5-HT1A receptor; [8]): -32%
- experimental hit status, Factor Xa (bovine factor Xa): 0
- % SARS-CoV-2 macrodomain inhibition ([1]; 39.0625 µM, replicates): 11.4%
- inhibition at 39.0625 µM ([1]; 39.0625 µM, replicates): 10.2%
- % SARS-CoV-2 macrodomain inhibition ([1]; 78.125 µM, replicates): 23.5%
- inhibition at 78.125 µM ([1]; 78.125 µM, replicates): 22.6%
- % SARS-CoV-2 macrodomain inhibition ([1]; 156.25 µM, replicates): 31.2%
- inhibition at 156.25 µM ([1]; 156.25 µM, replicates): 27.9%
- % SARS-CoV-2 macrodomain inhibition ([1]; 312.5 µM, replicates): 41.8%
- inhibition at 312.5 µM ([1]; 312.5 µM, replicates): 41%
- % SARS-CoV-2 macrodomain inhibition ([1]; 625 µM, replicates): 55.4%
- inhibition at 625 µM ([1]; 625 µM, replicates): 54.1%
- % SARS-CoV-2 macrodomain inhibition ([1]; 1250 µM, replicates): 64.7%
- inhibition at 1250 µM ([1]; 1250 µM, replicates): 65%
- % SARS-CoV-2 macrodomain inhibition ([1]; 2500 µM, replicates): 70.5%
- inhibition at 2500 µM ([1]; 2500 µM, replicates): 72%
- % SARS-CoV-2 macrodomain inhibition ([1]; 5000 µM, replicates): 74.9%
- inhibition at 5000 µM ([1]; 5000 µM, replicates): 74.7%
- pIC50 [1, 9]: 3.33
- experimental hit status, SETD2 (recombinant SETD2; 1 = hit, 0 = no hit): 0
- X-ray screen result, binding site [2]: identified in the active site
- inhibition at 10 µM (human 5-HT6 receptor; [10]): 40%
- experimental hit status, 5-HT6 (human 5-HT6 receptor; [4]): 0
- inhibition at 10 µM (human 5-HT6 receptor; [11]): 40%
- inhibition at 10 µM (human 5-HT6 receptor; [12]): 40%
- inhibition at 10 µM (human 5-HT6 receptor; [13]): 45%
- inhibition at 10 µM (human 5-HT6 receptor; [14]): 35%
- inhibition at 10 µM (human 5-HT7b receptor; [15]): 0%
- experimental hit status, 5-HT7 (human 5-HT7b receptor; [4]): 0
- inhibition at 10 µM (human 5-HT7b receptor; [16]): -0.039%
- inhibition at 10 µM (human 5-HT7b receptor; [17]): 0%
- inhibition at 10 µM (human 5-HT7b receptor; [18]): -4.51%
- inhibition at 10 µM (human 5-HT7b receptor; [19]): 4.43%
- inhibition at 1000 µM (SARS-CoV-2; Severe acute respiratory syndrome coronavirus 2, Vero C1008, read-out: Inhibition (%) of viral copy numbers, 1000 uM, replicates): 83.7%
- antiviral activity in the cellular assay (in words) (SARS-CoV-2): high micromolar range; also recorded: Significant antiviral activities
- experimental hit status, Thrombin (human thrombin; 1 = hit, 0 = no hit, screening at 200 µM): 0

SMILES: NC(=O)N1CCC(C(=O)O)CC1 [SX048]
- inhibition at 10 µM (human 5-HT1A receptor; [3]): 0.751%
- inhibition at 10 µM (human 5-HT1A receptor; [5]): 0.751%
- inhibition at 10 µM (human 5-HT1A receptor; [6]): 0.751%
- inhibition at 10 µM (human 5-HT1A receptor; [7]): 1.5%
- inhibition at 10 µM (human 5-HT1A receptor; [8]): 0%
- % SARS-CoV-2 macrodomain inhibition ([1]; 98 µM, replicates): 4.2%
- inhibition at 98 µM ([1]; 98 µM, replicates): 5.1%
- % SARS-CoV-2 macrodomain inhibition ([1]; 195 µM, replicates): 3.7% and 10.3%
- % SARS-CoV-2 macrodomain inhibition ([1]; 391 µM, replicates): 5.0% and 0.65%
- % SARS-CoV-2 macrodomain inhibition ([1]; 781 µM, replicates): 4.2% and 0.6%
- % SARS-CoV-2 macrodomain inhibition ([1]; 1563 µM, replicates): 5.8%
- inhibition at 1563 µM ([1]; 1563 µM, replicates): 6.6%
- % SARS-CoV-2 macrodomain inhibition ([1]; 3125 µM, replicates): 6.5% and 15.4%
- % SARS-CoV-2 macrodomain inhibition ([1]; 6250 µM, replicates): 80.4%
- inhibition at 6250 µM ([1]; 6250 µM, replicates): 84.7%
- % SARS-CoV-2 macrodomain inhibition ([1]; 12500 µM, replicates): 102.4%
- inhibition at 12500 µM ([1]; 12500 µM, replicates): 102%
- NSP3 inhibition (in words) ([1]; HTRF assay, at 5 mM concentration): significant
- pIC50 [1, 9]: 2.26
- pIC50 ([1]; NSP3 IC50, HTRF assay): 2.26
- X-ray screen result, binding site [2]: identified in the active site
- inhibition at 10 µM (human 5-HT6 receptor; [10]): 47%
- inhibition at 10 µM (human 5-HT6 receptor; [11]): 47%
- inhibition at 10 µM (human 5-HT6 receptor; [12]): 47%
- inhibition at 10 µM (human 5-HT6 receptor; [13]): 56%
- inhibition at 10 µM (human 5-HT6 receptor; [14]): 38%
- inhibition at 10 µM (human 5-HT7b receptor; [15]): 0%
- inhibition at 10 µM (human 5-HT7b receptor; [16]): -6.41%
- inhibition at 10 µM (human 5-HT7b receptor; [17]): 0%
- inhibition at 10 µM (human 5-HT7b receptor; [18]): -8%
- inhibition at 10 µM (human 5-HT7b receptor; [19]): -4.44%
- viral copy numbers normalized to the control (untreated infected cells) (SARS-CoV-2; 10 uM, replicates): 1.6898 and 2.197 and 1.352
- Inhibition (%) of viral copy numbers (SARS-CoV-2; 100 uM, replicates): 8.992%
- viral copy numbers normalized to the control (untreated infected cells) (SARS-CoV-2; 100 uM, replicates): 1.075 and 1.992 and 0.9101
- Inhibition (%) of viral copy numbers (SARS-CoV-2; 250 uM, replicates): 15.88% and 50.18% and 14.44%
- viral copy numbers normalized to the control (untreated infected cells) (SARS-CoV-2; 250 uM, replicates): 0.8412 and 0.4982 and 0.8556
- Inhibition (%) of viral copy numbers (SARS-CoV-2; 500 uM, replicates): 81.12% and 43.68% and 14.44%
- viral copy numbers normalized to the control (untreated infected cells) (SARS-CoV-2; 500 uM, replicates): 0.1888 and 0.5632 and 0.8556
- Inhibition (%) of viral copy numbers (SARS-CoV-2; 750 uM, replicates): 51.99% and 82.49% and 35.02%
- viral copy numbers normalized to the control (untreated infected cells) (SARS-CoV-2; 750 uM, replicates): 0.4801 and 0.1751 and 0.6498
- Inhibition (%) of viral copy numbers (SARS-CoV-2; 1000 uM, replicates): 41.84% and 41.07%
- viral copy numbers normalized to the control (untreated infected cells) (SARS-CoV-2; 1000 uM, replicates): 0.5067 and 0.5816 and 0.5893
- inhibition at 10 µM (SARS-CoV-2; Severe acute respiratory syndrome coronavirus 2, Vero C1008, 10 uM, replicates, read-out: Inhibition (%) of viral copy numbers): 0%
- inhibition at 1000 µM (SARS-CoV-2; Severe acute respiratory syndrome coronavirus 2, Vero C1008, 1000 uM, replicates, read-out: Inhibition (%) of viral copy numbers): 49.3%
- antiviral activity in the cellular assay (in words) (SARS-CoV-2): high micromolar range; also recorded: Significant antiviral activities
- pKi (human thrombin; plate layout, label = plate position, Cheng-Prusoff, Km 2.6 µM, read-out: Thrombin Ki): 3.52

— paper PMC8159961, “Exploring protein hotspots by optimized fragment pharmacophores” (Nature Communications, 2021)
